In the NIST ThermoML archive (doi:10.1021/acs.jced.9b00794):

Assay: mn = molality of the nth substance listed, in mol/kg
Conditions: 99.6 kPa, Liquid, Vibrating tube method

NC(N)=O [urea] + NC=O
mass density [kg/m3]
Conditions | 288.15 K | 298.15 K | 308.15 K | 318.15 K | 328.15 K
m1 = 0.1057 | 1138.95 | 1130.54 | 1122.1 | 1113.61 | 1105.1
m1 = 0.1893 | 1139.77 | 1131.36 | 1122.91 | 1114.44 | 1105.94
m1 = 0.3308 | 1141.12 | 1132.72 | 1124.29 | 1115.82 | 1107.33
m1 = 0.4766 | 1142.51 | 1134.11 | 1125.69 | 1117.23 | 1108.75
m1 = 0.675 | 1144.34 | 1135.96 | 1127.55 | 1119.11 | 1110.64
m1 = 0.7518 | 1145.05 | 1136.67 | 1128.26 | 1119.83 | 1111.37
m1 = 0.8498 | 1145.93 | 1137.56 | 1129.16 | 1120.74 | 1112.28
m1 = 1.07 | 1147.9 | 1139.54 | 1131.15 | 1122.75 | 1114.3
m1 = 1.292 | 1149.82 | 1141.49 | 1133.11 | 1124.72 | 1116.29
m1 = 1.33 | 1150.15 | 1141.82 | 1133.44 | 1125.05 | 1116.63
m1 = 1.424 | 1150.95 | 1142.62 | 1134.26 | 1125.87 | 1117.45
m1 = 1.555 | 1152.06 | 1143.73 | 1135.38 | 1127 | 1118.59
m1 = 1.681 | 1153.09 | 1144.79 | 1136.43 | 1128.06 | 1119.66
m1 = 1.718 | 1153.4 | 1145.09 | 1136.75 | 1128.38 | 1119.98
m1 = 1.824 | 1154.26 | 1145.96 | 1137.63 | 1129.27 | 1120.87
m1 = 1.999 | 1155.67 | 1147.39 | 1139.06 | 1130.7 | 1122.32

NC(N)=O [urea] + O
mass density [kg/m3]
Conditions | 288.15 K | 298.15 K | 308.15 K | 318.15 K | 328.15 K
m1 = 0.09134 | 1000.61 | 998.5 | 995.42 | 991.58 | 987.02
m1 = 0.2167 | 1002.67 | 1000.46 | 997.32 | 993.41 | 988.81
m1 = 0.3509 | 1004.84 | 1002.52 | 999.32 | 995.36 | 990.71
m1 = 0.5181 | 1007.5 | 1005.07 | 1001.77 | 997.75 | 993.05
m1 = 0.6698 | 1009.88 | 1007.34 | 1003.96 | 999.88 | 995.14
m1 = 0.8161 | 1012.14 | 1009.5 | 1006.05 | 1001.91 | 997.13
m1 = 0.9745 | 1014.54 | 1011.8 | 1008.27 | 1004.08 | 999.25
m1 = 1.195 | 1017.83 | 1014.96 | 1011.32 | 1007.05 | 1002.16
m1 = 1.33 | 1019.8 | 1016.85 | 1013.15 | 1008.83 | 1003.92
m1 = 1.489 | 1022.09 | 1019.05 | 1015.27 | 1010.91 | 1005.95
m1 = 1.6 | 1023.67 | 1020.57 | 1016.75 | 1012.35 | 1007.36
m1 = 1.707 | 1025.18 | 1022.02 | 1018.15 | 1013.72 | 1008.7
m1 = 1.898 | 1027.81 | 1024.56 | 1020.6 | 1016.12 | 1011.06
m1 = 2.034 | 1029.63 | 1026.33 | 1022.32 | 1017.8 | 1012.71
